# *: point of attachment. Mca = COc1ccc2c(CC(=O)*)cc(=O)oc2c1
# Tested on: exiguolysin
# Experiment: Km determination of the fluorogenic substrate (Michaelis-Menten)
# Assay type: biochemical, Exiguobacterium oxidotolerans
# Conditions: 25 mM Tris, 2.5 mM CaCl2, pH 7.0; substrate 0-200 µM; exiguolysin 5 units/well
# Description: The inhibition of protease activity was screened using a 20 × 20 library of N-alpha dipeptide mercaptoamide inhibitors as previously described by Cathcart et al., and the half-maximal inhibitory constant (Ki) values were determined. In order to determine Michaelis–Menten constant, Km, of the fluorogenic substrate, exiguolysin (previously purified by HIC, final concentration 5 units/well) was added to wells of a 96-well black microtitre plate (Nunc); the volume was adjusted to 75 µL in assay buffer (25 mM Tris, 2.5 mM CaCl2, pH 7.0), and fluorogenic substrate (25 µL) was added at concentrations of 0, 1, 10, 25, 50, 100 and 200 µM. Time-dependent hydrolysis of the fluorogenic substrate was measured (excitation/emission […] nm) every 30 s for 30 min. The Km is determined using the Michealis–Menten equation, by plotting the rate of substrate hydrolysis against substrate concentration.
substance,measurement,value
"Mca-Lys-Pro-Leu-Gly-Leu-Dap-(Dnp)-Ala-Arg-NH2 (Mca-KPLGL-{Dap(Dnp)-Ala-Arg-NH2}) [fluorogenic substrate, fluorogenic matrix metalloprotease (MMP) substrate]",Km,14.2 µM
